“Also recorded” adds a separate entry of the source. Read-outs that look alike come from different tables or passages of the source.
Experiments:
N2CN3N A125C mutant = biological target: T1, N2CN3N A125C mutant (UniProt P08659+P14340); type: biochemical
T1 construct: pairs of primers of 1394F and 1440C for NS2B and 1476F and 1660C for NS3; made in house; host or cells: Escherichia coli Rosetta 2(DE3)

[1] = biological target: T2, DENV2 NS2B-CLuc-NS3-119-NLuc-NS3 120-to-NS3_C (N2CN3N) (UniProt P08659+P14340); type: biochemical; conditions: for suppression of NPGB-induced SLC enhancement / effect of compound alone on background SLC: compound 40 μM; for suppression of NPGB-induced SLC enhancement: N2CN3N 150 nM; for effect of compound alone on background SLC: no NPGB, compared to DMSO; for inhibition of NPGB-induced SLC enhancement, concentration series: serial dilution of compound
T2 construct: pairs of primers of 1394F and 1440C for NS2B and 1476F and 1660C for NS3; made in house; host or cells: Escherichia coli Rosetta 2(DE3)
T2 sequence (P08659 whole entry, looked up, other chains not shown): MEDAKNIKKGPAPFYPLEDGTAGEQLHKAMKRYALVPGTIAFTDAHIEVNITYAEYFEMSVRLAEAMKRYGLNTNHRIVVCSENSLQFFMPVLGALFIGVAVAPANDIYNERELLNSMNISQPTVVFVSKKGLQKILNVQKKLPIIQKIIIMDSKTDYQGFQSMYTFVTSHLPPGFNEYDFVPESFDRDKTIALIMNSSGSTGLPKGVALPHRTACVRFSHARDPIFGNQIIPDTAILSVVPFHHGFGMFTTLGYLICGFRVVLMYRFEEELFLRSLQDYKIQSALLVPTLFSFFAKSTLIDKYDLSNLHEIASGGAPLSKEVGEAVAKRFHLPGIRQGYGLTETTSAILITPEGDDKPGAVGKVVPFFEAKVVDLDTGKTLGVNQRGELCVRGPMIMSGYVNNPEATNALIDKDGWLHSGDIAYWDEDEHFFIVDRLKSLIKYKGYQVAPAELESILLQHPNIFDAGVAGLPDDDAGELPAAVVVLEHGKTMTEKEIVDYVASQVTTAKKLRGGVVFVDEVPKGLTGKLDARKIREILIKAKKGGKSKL

[2] = biological target: T3, full-length firefly luciferase (FLuc) (Photinus pyralis, UniProt P08659); type: biochemical; conditions: FLuc 150 nM, compound 30 μM
T3 construct: or full length Firefly luciferase (150 nM final concentration)
T3 sequence (P08659 whole entry): as the sequence (P08659 whole entry, looked up, other chains not shown) above

YFV [3] = system: YFV
ZIKV [4] = conditions: A549 cells
in vitro = conditions: human
[5] = biological target: T4, DENV2 NS2B-NS3 V154A mutant (Dengue virus type 2, UniProt P14340, V1629A); type: binding
WNV [6] = system: WNV
[7] = biological target: T5, DENV2 NS2B-NS3 N152A mutant (Dengue virus type 2, UniProt P14340, N1627A); type: biochemical; conditions: compound 6 μM, protein 150 nM, vs DMSO
DENV2 [8] = conditions: for DENV2 viral production (titer) relative to DMSO control: compound at 1, 10 and 100 μM, 48 h post-infection
YFV [9] = test: microbe, parasite or virus in culture; conditions: Yellow fever virus, A549, 48 h, read-out: EC50, YFV viral reduction
[10] = biological target: T6, DENV2 NS2B-NS3 I123A mutant (Dengue virus type 2, UniProt P14340, I1598A); type: biochemical; conditions: compound 6 μM, protein 150 nM, vs DMSO
[11] = biological target: T5, DENV2 NS2B-NS3 N152A mutant; type: binding
DENV2 [12] = test: microbe, parasite or virus in culture; conditions: Dengue virus, A549, 48 h, read-out: EC50, DENV2 viral reduction
ZIKV [13] = test: microbe, parasite or virus in culture; type: cell-based; conditions: HPECs, MOI 2
[14] = biological target: T7, unlinked ZIKV NS2B/NS3 protease (Zika virus, UniProt A0A024B7W1); test: ZIKV unlinked NS2B/NS3 protease inhibition assay; type: biochemical; conditions: protease 150 nM
T7 construct: The construct contains the NS2B residues 49–95 and the NS3 residues 1–185; made in house; host or cells: E. coli (Rosetta 2(DE3))
Text: As flavivirus NS3 is highly conserved (Fig 3C), it is possible that the inhibitors identified are broad spectrum flavivirus inhibitors. We therefore investigated whether NSC135618 is effective against other flaviviruses. Because ZIKV treatment currently has the most urgent need, we evaluated the efficacy of the compound on ZIKV. To this end, we first constructed an unlinked NS2B/NS3 heterocomplex of ZIKV in the pET28a vector by engineering a 3C protease cleavage site within the GGGSGGGG linker region between NS2B and NS3. The NS2B/NS3 protease was first expressed as a His-tagged covalently linked single chain protein in E coli. The unlinked ZIKV NS2B/NS3 protease complex was generated by on-column digestion with thrombin and 3C proteases, followed by gel filtration chromatography.
Fig 7 Inhibition of the ZIKV protease activity, viral titer, protein expression, and viral RNA replication by NSC135618. […] ST, molecular weight (MW) standard. (B) Dose response inhibition of the unlinked ZIKV NS2B-NS3 protease by NSC135618. The NS2b/NS3 protease was at 150 nM. N = 3. (C) Dose-dependent inhibition of ZIKV by NSC135618 in A549 cells. Viral plaque reduction assay was used. N = 3. (D) Immunofluorescence assay (IFA) of inhibition of viral protein expression for ZIKV-infected A549 cells by NSC135618, using pan flavivirus anti-E antibody 4G2. […]

[15] = biological target: T4, DENV2 NS2B-NS3 V154A mutant; type: biochemical; conditions: compound 6 μM, protein 150 nM, vs DMSO
[16] = system: ZIKV NS3 / polyprotein precursor; test: Western blot of ZIKV NS3 expression and polyprotein processing in infected A549 cells
[17] = biological target: T6, DENV2 NS2B-NS3 I123A mutant; type: binding
ZIKV [18] = test: microbe, parasite or virus in culture; type: cell-based; conditions: hNPCs, MOI 2
WNV [19] = test: microbe, parasite or virus in culture; conditions: West Nile virus, A549, 48 h, read-out: EC50, WNV viral reduction
[20] = biological target: T8, DENV2 NS2B-NS3 K74A mutant (Dengue virus type 2, UniProt P14340, K1549A); type: biochemical; conditions: compound 6 μM, protein 150 nM, vs DMSO
ZIKV [21] = test: microbe, parasite or virus in culture; conditions: Zika virus, A549, 48 h, read-out: EC50, ZIKV viral reduction
unlinked DENV2 NS2B/NS3 = biological target: T9, unlinked DENV2 NS2B/NS3 (Dengue virus type 2, UniProt P14340); test: Protein thermal shift assay (PTSA), unlinked DENV2 NS2B/NS3; type: binding; conditions: unlinked NS2B/NS3 2.5 μM, compound 4.8 μM
T9 construct: pairs of primers of 1394F and 1440C for NS2B and 1476F and 1660C for NS3; made in house; host or cells: Escherichia coli Rosetta 2(DE3)
Text: N = 3. […] N = 3. […] PP, ZIKV polyprotein precursor. **, p<0.05.

[22] = biological target: T8, DENV2 NS2B-NS3 K74A mutant; type: binding
N2CN3N A125W mutant = biological target: T10, N2CN3N A125W mutant (UniProt P08659+P14340); type: biochemical; conditions: A125W mutant 150 nM, NPGB 30 μM
T10 construct: pairs of primers of 1394F and 1440C for NS2B and 1476F and 1660C for NS3; made in house; host or cells: Escherichia coli Rosetta 2(DE3)

[23] = protein 2.5 μM, compound 4.8 μM

Compound: O=C(O)c1cc(SSc2ccc([N+](=O)[O-])c(C(=O)O)c2)ccc1[N+](=O)[O-] [DTNB, 5,5'-dithio-bis-[2-nitrobenzoic acid]]
- effect on baseline SLC signal of A125C mutant (N2CN3N A125C mutant; DTNB 30 μM alone): only slightly decreased the baseline SLC signal
- effect on NPGB-triggered SLC enhancement of A125C mutant (N2CN3N A125C mutant; DTNB 30 μM with NPGB 30 μM): completely abolished the SLC enhancement
- effect on NPGB-triggered SLC enhancement of WT N2CN3N [1]: significantly abolished the active site inhibitor NPGB-triggered SLC enhancement
- effect on luciferase (baseline SLC) activity of WT N2CN3N [1]: did not significantly affect the luciferase activity
- effect on luciferase activity of full-length FLuc [2]: do not affect the luciferase activity; also recorded: did not significantly affect the luciferase activity

Compound: O=C1C=CC(=NNc2ccc([N+](=O)[O-])cc2Cl)C=C1C(=O)Nc1cccc(Cl)c1 [NSC135618]
- EC50, YFV viral reduction (YFV [3]): low micromolar range
- TI (therapeutic index, CC50/EC50) (YFV [3]): 174
- ZIKV viral protein expression (IFA, anti-E antibody 4G2) (ZIKV [4]): greatly reduced viral protein expression
- EC50, ZIKV viral reduction (ZIKV [4]; MOI 0.1, 48 h): low micromolar range
- ZIKV viral RNA copy numbers (qRT-PCR) (ZIKV [4]; supernatant): greatly reduced
- TI (therapeutic index, CC50/EC50) (ZIKV [4]; ZIKV): 49
- CC50 (in vitro): 48800 nM
- Tm (V154A) ([5]; Fig 10D): 52.09 °C
- ΔTm (V154A) [5, 23]: 1.75 °C
- TI (therapeutic index, CC50/EC50) (WNV [6]): 38
- EC50, WNV viral reduction (WNV [6]; A549 cells, MOI 0.1, 48 h): low micromolar range
- inhibition of protease activity of N152A mutant [7]: completely abolished the inhibition activity
- DENV2 viral RNA copy numbers (qRT-PCR) (DENV2 [8]; A549 cells): greatly reduced viral RNA copy numbers in a dose dependent manner
- EC50, DENV2 viral reduction (DENV2 [8]; A549 cells, MOI 0.1, 48 h): low micromolar range
- DENV2 viral production (titer) relative to DMSO control (DENV2 [8]; A549 cells): significantly reduced
- TI (therapeutic index, CC50/EC50) (DENV2 [8]; DENV2, A549 cells): 60
- EC50 (YFV [9]): 280 nM
- inhibition of protease activity of I123A mutant [10]: retains its inhibition activity
- Tm (N152A) ([11]; Fig 10D): 53.63 °C
- ΔTm (N152A) [11, 23]: 0.55 °C
- EC50 (DENV2 [12]): 810 nM
- ZIKV RNA replication (qRT-PCR) (ZIKV [13]): drastically decreased ZIKV RNA replication
- ZIKV protein expression (IFA) (ZIKV [13]): drastically decreased
- inhibition of ZIKV (titer) (ZIKV [13]): effectively inhibited ZIKV in HPECs in a dose-dependent manner
- EC50 (ZIKV [13]; Zika virus, Epithelial cell, read-out: EC50, ZIKV inhibition in HPECs): 1000 nM
- IC50 [14]: 380 nM
- inhibition of protease activity of V154A mutant [15]: slightly reduced the inhibition activity
- unprocessed viral polyprotein precursor (high MW band, Western blot) ([16]; 0.19 μM to 3 μM): accumulation of high molecular weight (MW) protein
- ZIKV NS3 expression (Western blot, normalized to GAPDH) ([16]; 0.75 μM to 6 μM, 48 h): significant inhibition of ZIKV NS3 expression
- viral protein expression (Western blot) ([16]; 6 μM): nearly completely suppressed viral protein expression
- Tm (I123A) ([17]; Fig 10D): 44.34 °C
- ΔTm (I123A) [17, 23]: 2.69 °C
- EC50 (ZIKV [18]; Zika virus, read-out: EC50, ZIKV inhibition in hNPCs): 1900 nM
- ZIKV RNA replication (qRT-PCR) (ZIKV [18]): considerably reduce
- ZIKV protein expression (IFA) (ZIKV [18]): considerably reduce
- reduction of ZIKV titers (ZIKV [18]): considerably reduce ZIKV titers
- suppression of NPGB-induced SLC enhancement ([1]; NPGB 30 μM): abolish the SLC enhancement induced by NPGB to the background level
- effect of compound alone on background SLC [1]: did not have significant effect on background SLC
- inhibition of NPGB-induced SLC enhancement, concentration series ([1]; NPGB 30 μM): significantly suppressed the SLC enhancement; also recorded: clearly inhibited the NPGB-induced SLC enhancement in a dose dependent manner
- EC50 (WNV [19]): 1270 nM
- inhibition of protease activity of K74A mutant [20]: retains its inhibition activity
- EC50 (ZIKV [21]): 1000 nM
- increase of melting temperature (ΔTm) vs DMSO (unlinked DENV2 NS2B/NS3): 4.8 °C
- Tm (K74A) ([22]; Fig 10D): 42.19 °C
- ΔTm (K74A) [22, 23]: 2.48 °C

Compound: Nitrophenyl p-guanidinobenzoate [NPGB]
- SLC enhancement compared to DMSO control (N2CN3N A125C mutant; A125C mutant 150 nM, NPGB 30 μM): 2.2 fold
- SLC enhancement compared to DMSO control ([1]; WT N2CN3N 150 nM, NPGB 30 μM): 4.2 fold
- effect on luciferase activity of full-length FLuc [2]: do not affect the luciferase activity; also recorded: did not have any effects
- SLC enhancement upon addition of active-site inhibitor (N2CN3N A125W mutant): SLC enhancement was not observed

Compound: Cn1ccc(=Nc2ccc(NC(=O)c3ccc(N=c4ccn(C)c5ccc([N+](=O)[O-])cc45)cc3)cc2)cc1 [NSC260594]
- CC50 (in vitro): > 500000 nM
- DENV2 viral production (titer) relative to DMSO control (DENV2 [8]; A549 cells): significantly reduced
- EC50 (DENV2 [12]): 13500 nM
- suppression of NPGB-induced SLC enhancement ([1]; NPGB 30 μM): abolish the SLC enhancement induced by NPGB to the background level
- effect of compound alone on background SLC [1]: did not have significant effect on background SLC
- inhibition of NPGB-induced SLC enhancement, concentration series ([1]; NPGB 30 μM): did not inhibit the NPGB-induced SLC enhancement until very high concentration

Compound: O=C(Nc1ccc(Nc2ccncc2)cc1)c1ccc(Nc2ccnc3ccc([N+](=O)[O-])cc23)cc1 [NSC146771]
- CC50 (in vitro): 82000 nM
- DENV2 viral production (titer) relative to DMSO control (DENV2 [8]; A549 cells): no appreciable effect; also recorded: did not show any inhibition
- EC50 (DENV2 [12]): > 100000 nM
- suppression of NPGB-induced SLC enhancement ([1]; NPGB 30 μM): abolish the SLC enhancement induced by NPGB to the background level
- effect of compound alone on background SLC [1]: did not have significant effect on background SLC
- inhibition of NPGB-induced SLC enhancement, concentration series ([1]; NPGB 30 μM): did not inhibit the NPGB-induced SLC enhancement until very high concentration

From publication PMC5462475, “A conformational switch high-throughput screening assay and allosteric inhibition of the flavivirus NS2B-NS3 protease” (PLoS Pathogens, 2017)
